Values of other authors, collected in US8229872B2, “Modeling and control for highly variable and nonlinear systems” (priority 2007, dated 2012).

Tested on: receptors of the neuromuscular junction
Details: isolated cat anterior tibialis and sartorius muscles; ref [18]

COc1cc2c3cc1Oc1cc(ccc1O)C[C@@H]1c4c(cc(OC)c(O)c4Oc4ccc(cc4)C[C@@H]3N(C)CC2)CC[N+]1(C)C [tubocurarine]
receptors that had to be blocked by the antagonist before block was noticeable: 76±5% | receptors that had to be blocked for near complete blockade: 92±16%
